The nature of series [1]: Compound was evaluated for its stability in phosphate buffer in presence of EDTA at pH 7.4. As to conditions: phosphate buffer with EDTA. The class given is physicochemical.
Series [2] in a line: Solubility of compound in 50 mM sodium phosphate buffer at room temperature. The class given is physicochemical. As to conditions: read-out: S.
Series [3] is described as follows: Compound was evaluated for its stability in phosphate buffer in absence of EDTA at pH 7.4. The series is classed as physicochemical. As to conditions: phosphate buffer without EDTA.
Series [4] can be described thus: Half-life in phosphate buffer at pH 7 and 37 degree C. The series is classed as ADME.

≈ marks a conversion by molar mass, not a printed value. Bounds are passed on as bounds.

Data on 4 compounds can be found in ChEMBL document CHEMBL1151485, “Glyco-S-nitrosothiols, a novel class of no donor compounds” (Bioorg Med Chem Lett, 1996).

Consider `CC(=O)NC(C(=O)NC1OC(CO)C(O)C(O)C1O)C(C)(C)SN=O` (stereo not drawn), for which the half-life (as a rule, the time needed for the level to fall by half in the phase considered) in series [1] was 28.5 h; in series [3] it was 30.2 h. The solubility in series [2] is more than 1000 mg/mL.

As to `CC(=O)NC(C(=O)NC1C(O)OC(CO)C(O)C1O)C(C)(C)SN=O` (stereo not drawn), the half-life in series [1] was 27.5 h; in series [3], 27.4 h. In series [2], the solubility is more than 1000 mg/mL.

As for `CC(=O)N[C@@H](C(=O)O)C(C)(C)SN=O`, the half-life in series [1] was 15.9 h; in series [4], 5 h; in series [3], 10.3 h. The solubility in series [2] worked out at 2 mg/mL (≈ 9.08 mM).

`COC1OC(CNC(=O)C(NC(C)=O)C(C)(C)SN=O)C(O)C(O)C1O` (stereo not drawn): the half-life in series [1] was 30.2 h; in series [3] it was 28.2 h. For the same compound, the solubility in series [2] is more than 1000 mg/mL.
